From article PMC9537572, “Elucidation of the binding mechanism of astragaloside IV derivative with human serum albumin and its cardiotoxicity in zebrafish embryos” (Frontiers in Pharmacology, 2022)
“Also recorded” adds a separate entry of the source.

Assays:
[1] = system: zebrafish embryos; assay: Astemizole-induced toxicity in zebrafish heart development; format: in vivo; details: for Mortality: cotreated with 4 µM astemizole 48 h from 2 hpf
Experimental: A total of 270 wild-type AB zebrafish at 2 h post-fertilization (2 hpf) were randomly selected, and 30 zebrafish were plated in each well of a six-well plates. The concentrations of LS-102 were 27.8, 83.3 and 250 µg/ml, while that of AGS IV was 250 µg/mL. A normal control group (fish culture water) and a 4 µM astemizole model control group were also established. After LS-102 and AGS IV were cotreated with astemizole for 48 h, zebrafish heart development was observed and photographed under a microscope to evaluate the ameliorative effect of LS-102 and AGS IV on astemizole-induced toxicity in zebrafish heart development.

[2] = target: T1, HSA (Homo sapiens, UniProt P02768); assay: Plasma protein binding rate by equilibrium dialysis and UHPLC-MS/MS; format: in vitro ADME
Experimental: The binding rate of AGS IV/LS-102 and HSA was determined using a slightly modified equilibrium dialysis method ([Metsu et al., 2020]). […] The stock solutions of HSA (0.5 ml) and drug group (0.5 ml) were placed in a dialysis membrane bag that was ligated at both ends and then immersed in a test tube filled with 50 ml of PBS solution for 72 h at 4 °C. After equilibrium, a 0.5-ml solution of outer dialysate and internal dialysate was collected into a 2-ml EP tube, and 10 µL IS (digoxin, 0.1 mg/ml) solution was added to each tube. Both samples were added to 1.5 ml of acetonitrile and vortexed for 3 min, and then the samples were separated via centrifugation at 18,000 × g for 20 min. The supernatants were transferred to another EP tube and dried under a nitrogen stream. The residue was redissolved in 1 ml methanol, sonicated for 2 min, vortexed for 3 min, and centrifuged at 18,000 × g for 10 min. The supernatant was filtered with a 0.22 µm microporous syringe filter in a 2 ml sample vial, and 1 µL was injected into the UHPLC-MS/MS system for analysis. The plasma protein binding rate was calculated according to the following formula ([Talbert et al., 2002]): Plasma binding rate=Internal drug concentration−External drug concentration/Initial drug concentration ×100%

[3] = target: T1, HSA; assay: Site marker competitive experiments (warfarin, ibuprofen) by equilibrium dialysis; format: in vitro ADME; details: drug 0.476 mg/ml, n = 3, read-out: Plasma protein binding (converted)
Experimental: The site marker competitive experiments were performed using two classical site probes, warfarin and ibuprofen, which were selected as the markers of subdomain IIA (site I) and subdomain IIIA (site II) separately of HAS ([Ghuman et al., 2005]). The procedure was consistent with the method described in section 2.5, except that the concentrations of AGS IV and LS-102 were both fixed at 0.476 mg/ml, while the external dialysis solution was changed to contain the probe with a final concentration of 0, 0.06, 0.3, 1.2 mg/ml PBS solution. Briefly, the AGS IV/LS-102 HSA mixture (0.5 ml drug and 0.5 ml HSA) was separately incubated with three different concentrations of probe to evaluate the effects of warfarin or ibuprofen on drug-protein binding influence. Three replicates of each concentration were prepared. After equilibrium dialysis, the internal and external dialysates were analyzed by UHPLC-MS/MS.

[4] = system: zebrafish embryos; assay: Astemizole-induced cardiotoxicity in zebrafish embryos: heart rate and SV-BA spacing; format: in vivo; details: 4 µM astemizole; for Heart rate (beats/min) (Mean±SE) / SV-BA spacing (µm) (Mean±SE): n = 10
Experimental: A total of 270 wild-type AB zebrafish at 3 dpf were randomly selected, and 30 zebrafish were plated in each well of a six-well plates. The concentrations of LS-102 were 27.8, 83.3 and 250 µg/ml, AGS IV was 250 µg/mL. A normal control group (fish culture water) and a 4 µM astemizole model control group were also established. Ten zebrafish were randomly selected from each group, and the heart rate and venous sinus-to-arterial bulb distance (SV-BA) of zebrafish were observed under a dissecting microscope after 2 h, 6 h and 24 h of LS-102 and AGS IV treatment. Images were collected by photographing, and the ameliorative effect of LS-102 and AGS IV on astemizole-induced cardiotoxicity in zebrafish was evaluated by the statistical significance of the heart rate and the SV-BA interval index.

[5] = system: zebrafish embryos; assay: Maximum tolerated concentration of LS-102 in zebrafish; format: in vivo; details: for Mortality: 3 dpf zebrafish, n=30; for Deaths: of 30 zebrafish
Experimental: Zebrafish embryos at 3 dpf were randomly selected and treated with LS-102 at concentrations of 1, 10, 100, 250 and 500 μg/ml in water, while the control group was left untreated. The mortality of zebrafish was recorded for each experimental group after 24 h of treatment.

[6] = 83.3 µg/mL, 4 µM astemizole, 48 h, n=30

T1 sequence (P02768 25-609): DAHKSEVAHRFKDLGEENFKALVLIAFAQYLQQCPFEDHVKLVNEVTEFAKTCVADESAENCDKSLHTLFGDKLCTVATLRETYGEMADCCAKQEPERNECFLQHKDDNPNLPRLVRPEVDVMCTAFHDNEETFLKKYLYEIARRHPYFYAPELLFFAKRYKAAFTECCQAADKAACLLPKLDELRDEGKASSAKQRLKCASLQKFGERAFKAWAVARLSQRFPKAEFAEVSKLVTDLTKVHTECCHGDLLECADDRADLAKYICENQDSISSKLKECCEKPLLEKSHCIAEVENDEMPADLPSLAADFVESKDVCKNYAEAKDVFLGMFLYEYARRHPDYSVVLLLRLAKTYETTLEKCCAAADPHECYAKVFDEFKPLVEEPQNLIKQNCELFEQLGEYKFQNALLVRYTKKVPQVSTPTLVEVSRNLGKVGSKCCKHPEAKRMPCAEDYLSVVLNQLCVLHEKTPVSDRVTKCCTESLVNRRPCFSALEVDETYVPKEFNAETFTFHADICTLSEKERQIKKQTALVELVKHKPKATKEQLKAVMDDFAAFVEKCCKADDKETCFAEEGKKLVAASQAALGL

SMILES: CC(C)(O)C1CCC(C)(C2C(O)CC3(C)C4CC(OC5OC(C(=O)O)C(O)C(O)C5O)C5C(C)(C)C(OC6OCC(O)C(O)C6O)CCC56CC46CCC23C)O1 (stereo not shown) [LS-102, astragalosidic acid]
- Mortality ([1]; 27.8 µg/mL, n=30): 0%
- Phenotype: absence of blood flow (share of zebrafish) [1, 6]: 26.7%
- Phenotype: pericardial oedema, venous sinus stasis (share of zebrafish) [1, 6]: 83.3%
- Phenotype: slowed blood flow (share of zebrafish) [1, 6]: 56.7%
- Mortality ([1]; 83.3 µg/mL, n=30): 0%
- Phenotype (in words) ([1]; 250 µg/mL, 4 µM astemizole, 48 h, n=30): no significant toxicity; also recorded: No abnormalities seen
- Mortality ([1]; 250 µg/mL, n=30): 30%
- Effect on the developmental toxicity of zebrafish hearts induced by astemizole (in words) ([1]; 83.3 and 250 µg/ml, 4 µM astemizole, 48 h): ameliorating effect
- Plasma protein binding rate, range over the concentrations ([2]; across the three concentrations (0.238-0.714 mg/ml)): 68.24%–69.35
- fraction unbound at 72 h ([2]; human, plasma, across the three concentrations (0.238-0.714 mg/ml), read-out: Plasma protein binding rate, range over the concentrations): 0.306 to 0.331
- fraction unbound at 72 h, 0.238 mg/ml ([2]; human, drug 0.238 mg/ml, equilibrium dialysis 72 h at 4 °C, n = 3, read-out: Protein binding rate (%, Mean±SD) (converted)): 0.318
- fraction unbound at 72 h, 0.476 mg/ml ([2]; human, drug 0.476 mg/ml, equilibrium dialysis 72 h at 4 °C, n = 3, read-out: Protein binding rate (%, Mean±SD) (converted)): 0.306
- fraction unbound at 72 h, 0.714 mg/ml ([2]; human, drug 0.714 mg/ml, equilibrium dialysis 72 h at 4 °C, n = 3, read-out: Protein binding rate (%, Mean±SD) (converted)): 0.314
- fraction unbound at 72 h, 0.476 mg/ml ([3]; with ibuprofen 0.06 mg/ml): 0.368
- fraction unbound at 72 h, 0.476 mg/ml ([3]; with ibuprofen 0.3 mg/ml): 0.248
- fraction unbound at 72 h, 0.476 mg/ml ([3]; with ibuprofen 1.2 mg/ml): 0.28
- fraction unbound at 72 h, 0.476 mg/ml ([3]; with warfarin 0.06 mg/ml): 0.467
- fraction unbound at 72 h, 0.476 mg/ml ([3]; with warfarin 0.3 mg/ml): 0.411
- fraction unbound at 72 h, 0.476 mg/ml ([3]; with warfarin 1.2 mg/ml): 0.453
- fraction unbound at 72 h, 0.476 mg/ml ([3]; without site markers): 0.331
- Heart rate (beats/min) (Mean±SE) ([4]; 27.8 µg/ml, 2 h): 156 ± 1 beats/min
- SV-BA spacing (µm) (Mean±SE) ([4]; 27.8 µg/ml, 2 h): 179 ± 7 µm
- Heart rate (beats/min) (Mean±SE) ([4]; 27.8 µg/ml, 6 h): 158 ± 1 beats/min
- SV-BA spacing (µm) (Mean±SE) ([4]; 27.8 µg/ml, 6 h): 204 ± 6 µm
- Heart rate (beats/min) (Mean±SE) ([4]; 27.8 µg/ml, 24 h): 45 ± 23 beats/min
- SV-BA spacing (µm) (Mean±SE) ([4]; 27.8 µg/ml, 24 h): 250 ± 6 µm
- Heart rate (beats/min) (Mean±SE) ([4]; 83.3 µg/ml, 2 h): 157 ± 2 beats/min
- SV-BA spacing (µm) (Mean±SE) ([4]; 83.3 µg/ml, 2 h): 157 ± 3 µm
- Heart rate (beats/min) (Mean±SE) ([4]; 83.3 µg/ml, 6 h): 153 ± 1 beats/min
- SV-BA spacing (µm) (Mean±SE) ([4]; 83.3 µg/ml, 6 h): 168 ± 4 µm
- Heart rate (beats/min) (Mean±SE) ([4]; 83.3 µg/ml, 24 h): 128 ± 21 beats/min
- SV-BA spacing (µm) (Mean±SE) ([4]; 83.3 µg/ml, 24 h): 228 ± 7 µm
- Heart rate (beats/min) (Mean±SE) ([4]; 250 µg/ml, 2 h): 160 ± 1 beats/min
- SV-BA spacing (µm) (Mean±SE) ([4]; 250 µg/ml, 2 h): 151 ± 3 µm
- Heart rate (beats/min) (Mean±SE) ([4]; 250 µg/ml, 6 h): 167 ± 1 beats/min
- SV-BA spacing (µm) (Mean±SE) ([4]; 250 µg/ml, 6 h): 158 ± 6 µm
- Heart rate (beats/min) (Mean±SE) ([4]; 250 µg/ml, 24 h): 162 ± 7 beats/min
- SV-BA spacing (µm) (Mean±SE) ([4]; 250 µg/ml, 24 h): 174 ± 9 µm
- Effect on astemizole-induced heart rate slowing and SV-BA spacing increase (in words) ([4]; 2 h and 6 h, 27.8, 83.3 and 250 µg/ml): improved the slowed heart rate and increased the SV-BA spacing
- Effect on astemizole-induced heart rate slowing and SV-BA spacing increase (in words) ([4]; 24 h): improved the slowed heart rate at 250 µg/ml and the increase in SV-BA spacing at 83.3 and 250 µg/ml
- Mortality ([5]; 1 µg/mL, 24 h): 0%
- Deaths ([5]; 1 µg/mL, 24 h): 0 tails
- Mortality ([5]; 10 µg/mL, 24 h): 0%
- Deaths ([5]; 10 µg/mL, 24 h): 0 tails
- Mortality ([5]; 100 µg/mL, 24 h): 0%
- Deaths ([5]; 100 µg/mL, 24 h): 0 tails
- Mortality ([5]; 250 µg/mL, 24 h): 13.3%
- Deaths ([5]; 250 µg/mL, 24 h): 4 tails
- Mortality ([5]; 500 µg/mL, 24 h): 100%
- Deaths ([5]; 500 µg/mL, 24 h): 30 tails
- Mortality (in words) ([5]; concentrations ranging from 1 to 100 µg/ml, 24 h): no mortality
- Maximum-tolerated concentration (MTC) ([5]; zebrafish 3 dpf, 24 h treatment): 100 µg/mL
